Molecules are shown by their SMILES.

The target of assay [1] is EGFR (Human), P00533 [T790M/L858R]. The conditions noted are these: nci-h1975.
Assay [2] has the same target. The conditions noted are these: nci-h1975. This is another data set of the same source.
For assay [3] the target is unchanged.

Chain of EGFR (Human), P00533 [T790M/L858R] (P00533 whole entry T790M/L858R, looked up): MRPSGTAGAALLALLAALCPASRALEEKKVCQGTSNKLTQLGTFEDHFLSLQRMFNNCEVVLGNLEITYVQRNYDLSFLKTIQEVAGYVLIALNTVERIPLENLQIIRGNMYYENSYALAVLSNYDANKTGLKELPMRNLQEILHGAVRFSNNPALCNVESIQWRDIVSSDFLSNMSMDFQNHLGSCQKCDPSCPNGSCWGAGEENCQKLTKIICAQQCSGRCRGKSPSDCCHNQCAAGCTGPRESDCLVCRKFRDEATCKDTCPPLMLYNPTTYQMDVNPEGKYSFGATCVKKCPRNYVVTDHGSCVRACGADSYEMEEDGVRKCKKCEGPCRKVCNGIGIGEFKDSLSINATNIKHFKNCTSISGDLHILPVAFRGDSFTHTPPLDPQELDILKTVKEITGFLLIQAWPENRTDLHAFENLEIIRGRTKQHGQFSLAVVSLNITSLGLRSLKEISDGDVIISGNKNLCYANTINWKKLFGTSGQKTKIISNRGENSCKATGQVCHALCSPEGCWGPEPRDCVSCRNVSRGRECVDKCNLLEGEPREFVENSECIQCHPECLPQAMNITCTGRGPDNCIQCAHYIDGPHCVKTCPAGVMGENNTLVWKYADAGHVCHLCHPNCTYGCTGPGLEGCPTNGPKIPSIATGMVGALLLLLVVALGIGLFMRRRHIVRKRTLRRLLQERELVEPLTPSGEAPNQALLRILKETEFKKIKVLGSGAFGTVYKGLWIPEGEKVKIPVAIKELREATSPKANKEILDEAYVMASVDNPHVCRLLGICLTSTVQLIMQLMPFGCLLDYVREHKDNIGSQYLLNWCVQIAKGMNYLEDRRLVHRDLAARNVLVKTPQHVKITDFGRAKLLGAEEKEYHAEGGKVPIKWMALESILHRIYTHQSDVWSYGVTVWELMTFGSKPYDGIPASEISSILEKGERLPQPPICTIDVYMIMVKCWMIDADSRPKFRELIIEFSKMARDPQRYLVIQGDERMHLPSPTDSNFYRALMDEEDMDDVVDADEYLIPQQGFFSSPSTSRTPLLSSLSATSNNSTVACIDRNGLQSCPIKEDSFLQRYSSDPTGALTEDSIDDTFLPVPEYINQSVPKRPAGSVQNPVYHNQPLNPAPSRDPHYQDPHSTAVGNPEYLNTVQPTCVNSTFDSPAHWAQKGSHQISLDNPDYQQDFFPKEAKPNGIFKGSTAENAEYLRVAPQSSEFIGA

Take `CC(C)n1nc(N2C[C@H](O)[C@@H](O)C2)c2cnc(Nc3ccnc(N4CCC(C)(O)CC4)n3)cc21`: the concentration giving a half-maximal response (EC50) in assay [1] and in assay [2] was > 10000 nM in each case.

In turn, `COCC1CN(c2nn(C(C)C)c3cc(Nc4ccnc(-c5cnn(S(=O)(=O)C6CC6)c5)n4)ncc23)C1` came in with an inhibitory constant (Ki) in assay [3] of 1 nM. In addition, the half-maximal effective concentration (EC50) came out at 211 nM in assay [1] and 20.9 nM in assay [2]. With `CC1COCC(C)N1c1nn(C(C)C)c2cc(Nc3ccnc(-c4cnn(S(=O)(=O)C5CC5)c4)n3)ncc12` (stereo unspecified), the concentration for a half-maximal effect (EC50) in assay [1] and in assay [2] was > 10000 nM each time. With `CC(C)n1nc(NC2CNC(=O)C2)c2cnc(Nc3ccnc(N4CCC(C)(O)CC4)n3)cc21` (stereo unspecified), the EC50 in assay [1] and in assay [2] was > 10000 nM in each case. For the compound `CCC(C)n1nc(N2CC[C@H](O)C2=O)c2cnc(Nc3ccnc(N4CC[C@@H](O)[C@@H](F)C4)n3)cc21` (stereo partly specified), the EC50 in assay [1] and in assay [2] was > 10000 nM in each case.

On to `CC[C@H](C)n1nc(N2CC3(COC3)C2)c2cnc(Nc3ccnc(N4CC[C@@H](O)[C@@H](F)C4)n3)cc21`, for which the 50% effective concentration (EC50) in assay [1] is 348 nM. In assay [1], `CCC(C)n1nc(N2CC[C@H](C(N)=O)C2)c2cnc(Nc3ccnc(N4CCC(C)(O)CC4)n3)cc21` (stereo partly specified) yielded a half-maximal effective concentration (EC50) of 2200 nM.

For `CC(C)n1nc(N2CCN(C)C2=O)c2cnc(Nc3ccnc(-c4cnn(S(=O)(=O)C5CC5)c4)n3)cc21`, in assay [1], the concentration giving a half-maximal response (EC50) was > 10000 nM. In the case of `CC(n1nc(N2CCNC2=O)c2cnc(Nc3ccnc(N4CCC(C)(O)CC4)n3)cc21)C(F)(F)F` (stereo unspecified), in assay [1], the concentration giving a half-maximal response (EC50) was determined as 1070 nM. Same read-out and setting: with `CCS(=O)(=O)n1cc(-c2nccc(Nc3cc4c(cn3)c(N3CC(CO)C3)nn4C(C)C)n2)cn1` the figure was 397 nM; with `CCC(C)n1nc(N2CC[C@@H](O)C2=O)c2cnc(Nc3ccnc(-c4cnn(S(=O)(=O)C5CC5)c4)n3)cc21` (stereo partly specified), 586 nM. In assay [1], `CC[C@H](C)n1nc(N2CC[C@@H](O)C2)c2cnc(Nc3ccnc(N4CC[C@](C)(O)[C@H](F)C4)n3)cc21` returned an EC50 of 521 nM. In the case of `CC[C@H](C)n1nc(N2CC[C@H](O)C2)c2cnc(Nc3ccnc(N4CC[C@](C)(O)[C@H](F)C4)n3)cc21`, the concentration for a half-maximal effect (EC50) in assay [1] came to 371 nM. As for `CCS(=O)(=O)n1cc(-c2nccc(Nc3cc4c(cn3)c(N3CC(C(=O)N(C)C)C3)nn4C(C)C)n2)cn1`, the EC50 in assay [1] is 236 nM. In assay [1], `CCC(C)n1nc(N2CC[C@@H](O)C2)c2cnc(Nc3ccnc(N4CCC(S(C)(=O)=O)CC4)n3)cc21` (stereo partly specified) returned an EC50 of 1110 nM. In turn, `CCC(C)n1nc(N2CCNC2=O)c2cnc(Nc3ccnc(-c4cnn(S(=O)(=O)C5CC5)c4)n3)cc21` (stereo unspecified) gave a concentration giving a half-maximal response (EC50) in assay [1] of 138 nM. In the case of `CC(C)n1nc(F)c2cnc(Nc3ccnc(-c4cnn(S(=O)(=O)C5CC5)c4)n3)cc21`, the EC50 in assay [1] and in assay [2] was > 10000 nM throughout. On to `CC(C)n1nc(N(C)CC(O)CO)c2cnc(Nc3ccnc(-c4cnn(S(=O)(=O)C5CC5)c4)n3)cc21` (stereo unspecified), for which, in assay [1], the 50% effective concentration (EC50) worked out at 945 nM. Take `CCC(C)n1nc(N2CC[C@H](O)C2=O)c2cnc(Nc3ccnc(-c4cnn(S(=O)(=O)C5CC5)c4)n3)cc21` (stereo partly specified): the half-maximal effective concentration (EC50) in assay [1] came to 696 nM. In assay [1], `CC(C)n1nc(N2CC[C@H](N)C2=O)c2cnc(Nc3ccnc(N4CCC(C)(O)CC4)n3)cc21` gave an EC50 of 9730 nM. The same measure, in the same setting: with `CC[C@@H](C)n1nc(N2CC(C(C)(C)O)C2)c2cnc(Nc3ccnc(N4CC[C@@H](O)[C@@H](F)C4)n3)cc21` the figure was 334 nM; with `CC[C@@H](C)n1nc(N2CC[C@@H](O)C2)c2cnc(Nc3ccnc(N4CCC5(CC4)CNC(=O)CO5)n3)cc21`, 9130 nM. The compound `Cc1cn[nH]c1-c1nn(C(C)C)c2cc(Nc3ccnc(N4CCC(O)C(C)(C)C4)n3)ncc12` (stereo unspecified) returned a half-maximal effective concentration (EC50) in assay [1] of 1710 nM. In assay [1], `CC(C)n1nc(N2CCCNC2=O)c2cnc(Nc3ccnc(-c4cnn(S(=O)(=O)C5CC5)c4)n3)cc21` had a 50% effective concentration (EC50) of 765 nM. In assay [1], `CC(C)n1nc(N2CCC(C)(C(N)=O)C2)c2cnc(Nc3ccnc(N4CCC(C)(O)CC4)n3)cc21` (stereo unspecified) had a 50% effective concentration (EC50) of 2860 nM. This EC50 is about 3.7-fold higher than that of the compound before. Compound `COC1CCN(c2nccc(Nc3cc4c(cn3)c(N3CC5(COC5)C3)nn4C(C)C)n2)CC1` had an EC50 in assay [1] of 388 nM. Still for that read-out and setting: next, `CC(C)n1nc(N[C@H]2CCOC2)c2cnc(Nc3ccnc(-c4cnn(S(=O)(=O)C5CC5)c4)n3)cc21`: 373 nM. Regarding `CC(C)n1nc(N2CCC(C(N)=O)C2)c2cnc(Nc3ccnc(-c4cnn(S(=O)(=O)C5CC5)c4)n3)cc21` (stereo unspecified), in assay [3], the Ki was < 0.6 nM. The compound further came in with a 50% effective concentration (EC50) in assay [1] of 608 nM.

(Values after the Kinase Knowledgebase extract (Sharma et al. 2016).)
